Legend:
[1] = test system: rabbit platelet; assay: ADP-induced aggregation in rabbit platelets (AG-II Aggregometer); format: cell-based; parameters: inhibition: dose or concentration left out as unconfirmed; details: Oryctolagus cuniculus, Platelet, read-out: Inhibition effect on ADP-induced aggregation in rabbit platelet; for inhibition at 100 µM (stock): 10^-4 mole; for inhibition at 10 µM (stock): 10^-5 mole; for inhibition at 1 µM (stock): 10^-6 mole
Method: (§1) The platelet aggregation inhibitory effect is measured by using AG-II Aggregometer (manufactured by Bryston Manufacturing Co.). The blood sample used for the test is a 1/9 (by volume) mixture of sodium citrate and whole blood collected from rabbit. Said sample is subjected to 10-minute centrifugal separation at 1,000 r.p.m. to obtain a platelet rich plasma (PRP). The thus obtained PRP is separated, and the remaining blood sample is further subjected to 15-minute centrifugal separation at 3,000 r.p.m. to obtain a platelet poor plasma (PPP).
(§2) The number of platelets in the PRP is counted by the Brecher-Clonkite Method, and the PRP is diluted with the PPP to prepare a PRP sample with platelet concentration of 300,000/mm^3 for the adenosine diphosphate (ADP)-induced aggregation test. There is also prepared a PRP sample with platelet concentration of 450,000/mm^3 for the collagen-induced aggregation test.
(§3) 0.6 ml of said PRP sample is added into 0.01 ml of a solution of a test compound of a predetermined concentration and the mixture is placed in a 37° C. thermostat for one minute. Then 0.07 ml of an ADP or collagen solution is added to the mixture. Transmittance of this mixture is determined and the change of transmittance is recorded by using the aggregometer at stirrer speed of 1,100 r.p.m. In this test, Auren Beronal buffer (pH 7.35) is used for the preparation of the ADP or collagen solution. ADP is adjusted to a concentration of 7.5×10^-5 M, and the collagen solution is prepared by triturating 100 mg of collagen with 5 ml of said buffer and the supernatant is used as collagen inducer. Adenosine and acetylsalicylic acid are used as controls for the ADP-induced aggregation test and the collagen-induced aggregation test, respectively. The platelet aggregation inhibitory effect is measured in terms of percent inhibition with respect to the aggregation rate of the controls. The aggregation rate is calculated from the following formula:
(§4) Aggregation rate=(c-a)/(b-a)×100
(§5) b: transmittance of PRP containing a test compound and an aggregation inducer
(§6) The inhibitory effect of the tested compounds on collagen-induced aggregation in rabbit platelets is shown in Table 1, and such effect on ADP-induced aggregation is shown in Table 2. The compounds tested are as follows.

[2] = test system: rabbit platelet; assay: Collagen-induced aggregation in rabbit platelets (AG-II Aggregometer); format: cell-based; parameters: inhibition: dose or concentration left out as unconfirmed; details: Oryctolagus cuniculus, Platelet, read-out: Inhibition effect on collagen induced aggregation in rabbit platelet; for inhibition at 100 µM (stock): 10^-4 mole; for inhibition at 10 µM (stock): 10^-5 mole; for inhibition at 1 µM (stock): 10^-6 mole
Method: as §1, §2, §3, §4, §5, §6

[3] = Acute toxicity test, oral administration to mice; format: in vivo; details: mouse, in vivo, Male mice
Method: The test compounds were administered orally to the mice and LD50 (mg/kg) of the compounds was determined.

[4] = Concentration in blood of male beagle dogs; format: in vivo; details: dog, plasma, 30 mg/kg, 30 mg/kg water suspension
Method: (§7) A water suspension of test compound was administered at the dose of 30 mg/kg to the overnight fasted male Wister rats and male beagle dogs, and after a predetermined period of time, blood was collected from said animals to obtain plasma. 2 to 3 Milliliters of 0.1 N-NaOH and 2 ml of CHCl3 were added to 1 ml of the obtained plasma, and the mixture was shaken and extracted in a shaker for 2 hours, and after centrifugal separation, the organic layer was washed with 2 ml of 0.1 N-HCl. This organic layer was then subjected to a freezing and thawing treatment, and after evaporating chloroform under nitrogen stream, the residue was redissolved in 100 μl of chloroform and spotted on a thin layer plate of "Silica Gel 60 F254 " manufactured by Merck & Co., Inc. This was developed in a chloroform: butanol mixed solvent (5:1) and determined by measuring the spots with same Rf value as the test compound according to the absorbance method by using Shimazu CS-910 Thin Layer Chromato-scanner,and therefrom the concentration (μg/ml) of test compound A in blood was determined.

[5] = Concentration in blood of male Wister rats; format: in vivo; details: rat, plasma, 30 mg/kg, 30 mg/kg water suspension
Method: as §7

SMILES	inhibition at 100 µM (stock) [1]	inhibition at 10 µM (stock) [1]	inhibition at 1 µM (stock) [1]	inhibition at 100 µM (stock) [2]	inhibition at 10 µM (stock) [2]	inhibition at 1 µM (stock) [2]	LD50 [3]	further results
O=C1CCc2cc(OCCCC(=O)N(C3CCCCC3)C3CCCCC3)ccc2N1 [compound 18, 6-[3-(N,N-Dicyclohexylaminocarbonyl)propoxy]-3,4-dihydrocarbostyril]	86.4%	37.5%	12.6%	87.5%	59.4%	50%	> 1000 mg/kg	concentration at 1 h [4]: 360 ng/mL; concentration at 2 h [4]: 230 ng/mL; concentration at 4 h [4]: 320 ng/mL; concentration at 6 h [4]: 170 ng/mL; concentration at 8 h [4]: 130 ng/mL; concentration at 12 h [4]: 60 ng/mL; concentration at 1 h [5]: 1320 ng/mL; concentration at 2 h [5]: 1740 ng/mL; concentration at 4 h [5]: 1020 ng/mL; concentration at 6 h [5]: 690 ng/mL; concentration at 8 h [5]: 560 ng/mL; concentration at 12 h [5]: 420 ng/mL
CN(C(=O)CCCOc1cccc2c1CCC(=O)N2)C1CCCCC1 [compound 23, 5-[3-(N-Methyl-N-cyclohexylaminocarbonyl)propoxy]-3,4-dihydrocarbostyril]	73.6%	26.1%	8.7%	76.5%	58.7%	13.5%	> 1000 mg/kg	concentration at 1 h [4]: 430 ng/mL; concentration at 2 h [4]: 290 ng/mL; concentration at 4 h [4]: 210 ng/mL; concentration at 6 h [4]: 140 ng/mL; concentration at 8 h [4]: 50 ng/mL; concentration at 12 h [4]: 70 ng/mL; concentration at 1 h [5]: 1530 ng/mL; concentration at 2 h [5]: 2240 ng/mL; concentration at 4 h [5]: 940 ng/mL; concentration at 6 h [5]: 540 ng/mL; concentration at 8 h [5]: 390 ng/mL; concentration at 12 h [5]: 520 ng/mL
O=C1CCc2cc(OCCCC(=O)OC3CCCCC3)ccc2N1 [compound 40, 6-(3-Cyclohexyloxycarbonylpropoxy)-3,4-dihydrocarbostyril, reference compound]	28%	16%	7%	12%	8%	0%	500 to 800 mg/kg	–
CCCNC(=O)CC(C)COc1ccc2c(c1)CCC(=O)N2 (stereo not shown) [compound 45, 6-[3-(N-Propylaminocarbonyl)-2-methylpropoxy]-3,4-dihydrocarbostyril, reference compound]	32%	17%	9%	12%	5%	0%	500 to 800 mg/kg	–
O=C1CCc2c(cccc2OCC(=O)N2CCOCC2)N1 [compound 42, 5-(Morpholinocarbonylmethoxy)-3,4-dihydrocarbostyril, reference compound]	13%	6%	0%	5%	0%	0%	400 to 600 mg/kg	–
CN(C)C(=O)COc1cccc2c1CCC(=O)N2 [compound 43, 5-(N,N-dimethylaminocarbonylmethoxy)-3,4-dihydrocarbostyril, reference compound]	22%	17%	8%	27%	13%	0%	500 to 700 mg/kg	–
C=CCN(C(=O)CCCOc1ccc2c(c1)CCC(=O)N2)C1CCCCC1 [compound 14, 6-[3-(N-Allyl-N-cyclohexylaminocarbonyl)propoxy]-3,4-dihydrocarbostyril]	41.3%	25.7%	15.1%	82.4%	42.3%	15.7%	> 1000 mg/kg	–
COc1ccc(CCN(C)C(=O)CCCOc2ccc3[nH]c(=O)ccc3c2)cc1OC [compound 4, 6-{3-[N-Methyl-N-(2-3',4'-dimethoxyphenylethyl)aminocarbonyl]propoxy}carbostyril]	70.4%	16.1%	6.9%	82.9%	46.5%	19.2%	> 1000 mg/kg	–
O=C1CCc2cc(OCCCC(=O)N(C3CCCCC3)C3CCCCC3Cl)ccc2N1 (stereo not shown) [compound 7, 6-{3-[N-Cyclohexyl-N-(2-chlorocyclohexyl)aminocarbonyl]propoxy}-3,4-dihydrocarbostyril]	–	–	–	–	–	–	> 1000 mg/kg	inhibition [1]: 82.9%; inhibition [2]: 89.9%
O=C(CCCOc1ccc2[nH]c(=O)ccc2c1)N(Cc1ccccc1)C1CCCCC1 [compound 5, 6-{3-(N-Cyclohexyl-N-benzylaminocarbonyl)propoxy]carbostyril]	–	90.7%	61.2%	–	91.8%	88.4%	> 1000 mg/kg	inhibition at 0.1 µM (stock) ([1]; 10^-7 mole): 18.9%; inhibition at 0.1 µM (stock) ([2]; 10^-7 mole): 30.6%
CCCCN(C(=O)CCCCOc1ccc2c(c1)CCC(=O)N2)C1CCCCC1 [compound 22, 6-[4-(N-Butyl-N-cyclohexylaminocarbonyl)buthoxy]-3,4-dihydrocarbostyril]	71.5%	32.7%	10.5%	85.6%	78.5%	28.7%	> 1000 mg/kg	–
CN(C(=O)CCCOc1ccc(O)c2c1CCC(=O)N2)C1CCCCC1 [compound 10, 8-Hydroxy-5-[3-(N-Methyl-N-cyclohexylaminocarbonyl)propoxy]-3,4-dihydrocarbostyril]	53.9%	18.4%	–	91.8%	29.3%	–	> 1000 mg/kg	–
COc1ccc(CCN(Cc2ccccc2)C(=O)CCCOc2ccc3c(c2)CCC(=O)N3)cc1OC [compound 11, 6-{3-[N-Benzyl-N-(2-3',4'-dimethoxyphenylethyl)aminocarbonyl]propoxy}-3,4-dihydrocarbostyril]	87.5%	12.5%	16.9%	88.1%	75.8%	28.1%	> 1000 mg/kg	–

Source: patent US4298739A, “Novel carbostyril derivatives” (priority 1977, dated 1981)
